Each molecule was assayed on C57BL/6 mice (assay: In vivo expression level of Luciferase-mRNA delivered by intravenous injection (bioluminescence imaging)). Settings: mRNA-loaded nanoparticles, compounds of Example 1; intravenous (tail vein), 5 μg Luciferase-mRNA, 6 hours.
Method: Luciferase-mRNA was used as an mRNA model; and the cationic lipid analogues of Examples 1-5 were used to prepare drug-loaded nanoparticles according to the method of Example 6.
200 μL of nanoparticles containing 5 μg Luciferase-mRNA or the drug-loaded nanoparticles prepared above were injected into tail veins of 6-8 week-old C57BL/6 mice, and 200 μL of 1×PBS solution containing 3 mg D-Luciferin potassium salt was intraperitoneally injected into the mice 6 hours later. After waiting for 10 minutes, an in vivo expression level of the mRNA was evaluated by bioluminescence imaging.

SMILES	Fluorescence intensity of liver	Bioluminescence intensity
CCCCCCCCCCCCCCCCCCNC(=O)C(C1CCCCC1)N(CCCN(CC)CC)C(=O)CCCCCCCCCCCCCCCCC (stereo not shown) [A23I18R3C18]	2.14E+03	–
CCCCCCCC/C=C\CCCCCCCC(=O)N(CCCN(C)C)C(C(=O)NCCCCCCCCCCCCCCCCCC)C(C)C (stereo not shown) [A1I18R2C18-1]	2.63E+04	–
CCCCC/C=C\C/C=C\CCCCCCCC(=O)N(CCN1CCOCC1)C(C(=O)NCCCCCCCCCCCCCCCCCC)C(CC)CCCC (stereo not shown) [A4I18R4C18-2]	1.25E+04	–
CCCCC/C=C\C/C=C\CCCCCCCC(=O)N(CCCN(CC)CC)C(C(=O)NCCCCCCCCCCCCCCCCCC)C(C)C (stereo not shown) [A1I18R3C18-2]	1.48E+05	–
CCCCC/C=C\C/C=C\CCCCCCCC(=O)N(CCCN1CCN(C)CC1)C(CCCCC)C(=O)NCCCCCCCCCCCCCCCCCC (stereo not shown) [A4I18R9C18-2]	2.55E+03	–
CCCCCCCC/C=C\CCCCCCCC(=O)N(CCN(C)C)C(C(=O)NCCCCCCCCCCCCCCCCCC)C1CCCCC1 (stereo not shown) [A23I18R1C18-1]	5.74E+06	–
CCCCCCCCCCCCC#CC#CCCCCCCCCC(=O)N(CCCN(CC)CC)C(C(=O)NCCCCCCCCCCCCCCCCCC)C(CC)CCCC (stereo not shown) [A4I18R3C23]	7.81E+06	–
CCCCCCCC/C=C\CCCCCCCC(=O)N(CCCN(CC)CC)C(C(=O)NCCCCCCCCCCCCCCCCCC)C(C)C (stereo not shown) [A1I18R3C18-1]	9.29E+03	–
CCCCC/C=C\C/C=C\CCCCCCCC(=O)N(CCC1CCCN1C)C(CCCCC)C(=O)NCCCCCCCCCCCCCCCCCC (stereo not shown) [A4I18R11C18-2]	1.02E+06	–
CCCCCCCCCCCCC#CC#CCCCCCCCCC(=O)N(CCCN(CC)CC)C(C(=O)NCCCCCCCCCCCCCCCCCC)C1CCCCC1 (stereo not shown) [A23I18R3C23]	7.89E+05	–
CCCCCCCC/C=C\CCCCCCCC(=O)N(CCN(C)C)C(C(=O)NCCCCCCCCCCCCCCCCCC)C(C)C (stereo not shown) [A1I18R1C18-1]	5.08E+05	–
CCCCC/C=C\C/C=C\CCCCCCCC(=O)N(CCN1CCCC1)C(CCCCC)C(=O)NCCCCCCCCCCCCCCCCCC (stereo not shown) [A4I18R10C18-2]	7.89E+05	–
CCCCC/C=C\C/C=C\CCCCCCCC(=O)N(CCCN(C)C)C(C(=O)NCCCCCCCCCCCCCC)C(CC)CCCC (stereo not shown) [A4I10R2C18-2]	1.15E+06	–
CC/C=C\C/C=C\C/C=C\CCCCCCCC(=O)N(CCCN(C)C)C(C(=O)NCCCCCCCCCCCCCCCCCC)C(CC)CCCC (stereo not shown) [A4I18R2C18-3]	–	1.36E+07
CCCCCCCCCCCCC#CC#CCCCCCCCCC(=O)N(CCCN(C)C)C(C(=O)NCCCCCCCCCCCCCCCCCC)C(CC)CCCC (stereo not shown) [A4I18R2C23]	–	1.40E+07
CCCCCCCCCCCCCCCCCCNC(=O)C(C1CCCCC1)N(CCN(C)C)C(=O)CCCCCCCCCCCCCCCCC (stereo not shown) [A23I18R1C18]	9.09E+04	–
CCCCCCCC/C=C\CCCCCCCC(=O)N(CCCN(C)C)C(C(=O)NCCCCCCCCCCCCCCCCCC)C1CCCCC1 (stereo not shown) [A23I18R2C18-1]	1.29E+06	–

Same assay, conditions: mRNA-loaded nanoparticles, compounds of Example 2; intravenous (tail vein), 5 μg Luciferase-mRNA, 6 hours

SMILES	Fluorescence intensity of spleen	Bioluminescence intensity
CCCCCCCCCCCCCCCCCC(=O)N(CCOC)C(C(=O)NCCN(C)CCNC(=O)C(C1CC1)N(CCOC)C(=O)CCCCCCCCCCCCCCCCC)C1CC1 (stereo not shown) [A21I4R23C18]	2.65E+04	–
CCCCCCCC/C=C\CCCCCCCC(=O)N(CCC)C(C(=O)NCCN(C)CCNC(=O)C(C1CCCCC1)N(CCC)C(=O)CCCCCCC/C=C\CCCCCCCC)C1CCCCC1 (stereo not shown) [A23I4R21C18-1]	9.63E+04	–
CCCCC/C=C\C/C=C\CCCCCCCC(=O)N(CCN1CCCCCC1)C(C(=O)NCCN(C)CCNC(=O)C(C(C)C)N(CCN1CCCCCC1)C(=O)CCCCCCC/C=C\C/C=C\CCCCC)C(C)C (stereo not shown) [A1I4R13C18-2]	2.85E+04	–
CCCCCCCCCCCCCCCCCC(=O)N(CCN1CCCCCC1)C(C(=O)NCCN(C)CCNC(=O)C(C1CCCCC1)N(CCN1CCCCCC1)C(=O)CCCCCCCCCCCCCCCCC)C1CCCCC1 (stereo not shown) [A23I4R13C18]	–	7.89E+02
CCCCCCCCCCSSCCC(=O)N(CCO)C(C(=O)NCCN(C)CCNC(=O)C(C(C)C)N(CCO)C(=O)CCSSCCCCCCCCCC)C(C)C (stereo not shown) [A1I4R22S15]	4.10E+03	–
CCCCCCCCCCCCCCCCCC(=O)N(CCC)C(C(=O)NCCN(C)CCNC(=O)C(C1CC1)N(CCC)C(=O)CCCCCCCCCCCCCCCCC)C1CC1 (stereo not shown) [A21I4R21C18]	5.31E+03	–
CCCCCCCCCCCCCCCCCC(=O)N(CCCN(C)C)C(C(=O)NCCN(C)CCNC(=O)C(C1CCCCC1)N(CCCN(C)C)C(=O)CCCCCCCCCCCCCCCCC)C1CCCCC1 (stereo not shown) [A23I4R2C18]	–	5.71E+02
CCCCCCCCCCCCCCCCCC(=O)N(CCCN(C)C)C(C(=O)NCCN(C)CCNC(=O)C(C(CC)CCCC)N(CCCN(C)C)C(=O)CCCCCCCCCCCCCCCCC)C(CC)CCCC (stereo not shown) [A4I4R2C18]	2.24E+03	–
CCCCCCCCCCCCCCCCCC(=O)N(CCC)C(C(=O)NCCN(C)CCNC(=O)C(C1CCCCC1)N(CCC)C(=O)CCCCCCCCCCCCCCCCC)C1CCCCC1 (stereo not shown) [A23I4R21C18]	5.43E+03	–
CCCCCCCC/C=C\CCCCCCCC(=O)N(CCC)C(C(=O)NCCN(C)CCNC(=O)C(C1CC1)N(CCC)C(=O)CCCCCCC/C=C\CCCCCCCC)C1CC1 (stereo not shown) [A21I4R21C18-1]	8.50E+03	–
CCCCCCCCCCCCCCCCCC(=O)N(CCN1CCCCCC1)C(C(=O)NCCN(C)CCNC(=O)C(C(CC)CCCC)N(CCN1CCCCCC1)C(=O)CCCCCCCCCCCCCCCCC)C(CC)CCCC (stereo not shown) [A4I4R13C18]	2.79E+03	–
CCCCC/C=C\C/C=C\CCCCCCCC(=O)N(CCC)C(C(=O)NCCN(C)CCNC(=O)C(C1CCCCC1)N(CCC)C(=O)CCCCCCC/C=C\C/C=C\CCCCC)C1CCCCC1 (stereo not shown) [A23I4R21C18-2]	6.07E+04	–
CCCCCCCC/C=C\CCCCCCCC(=O)N(CCCN(C)C)C(C(=O)NCCN(C)CCNC(=O)C(C(C)C)N(CCCN(C)C)C(=O)CCCCCCC/C=C\CCCCCCCC)C(C)C (stereo not shown) [A1I4R2C18-1]	–	8.80E+02
CCCCC/C=C\C/C=C\CCCCCCCC(=O)N(CCCN(C)C)C(C(=O)NCCN(C)CCNC(=O)C(C(C)C)N(CCCN(C)C)C(=O)CCCCCCC/C=C\C/C=C\CCCCC)C(C)C (stereo not shown) [A1I4R2C18-2]	3.18E+03	–
CCCCCCCCSSCCC(=O)N(CCO)C(C(=O)NCCN(C)CCNC(=O)C(C(C)C)N(CCO)C(=O)CCSSCCCCCCCC)C(C)C (stereo not shown) [A1I4R22S13]	5.90E+03	–
CCCCCCCC/C=C\CCCCCCCC(=O)N(CCN1CCCCCC1)C(C(=O)NCCN(C)CCNC(=O)C(C1CC1)N(CCN1CCCCCC1)C(=O)CCCCCCC/C=C\CCCCCCCC)C1CC1 (stereo not shown) [A21I4R13C18-1]	–	9.59E+02
CCCCCCCC/C=C\CCCCCCCC(=O)N(CCCN(C)C)C(C(=O)NCCN(C)CCNC(=O)C(C(CC)CCCC)N(CCCN(C)C)C(=O)CCCCCCC/C=C\CCCCCCCC)C(CC)CCCC (stereo not shown) [A4I4R2C18-1]	1.13E+03	–
CCCCCCCCCCCCCCCCCC(=O)N(CCCN(C)C)C(C(=O)NCCN(C)CCNC(=O)C(C(C)C)N(CCCN(C)C)C(=O)CCCCCCCCCCCCCCCCC)C(C)C (stereo not shown) [A1I4R2C18]	1.79E+04	–
CCCCCCCC/C=C\CCCCCCCC(=O)N(CCN1CCCCCC1)C(C(=O)NCCN(C)CCNC(=O)C(C1CCCCC1)N(CCN1CCCCCC1)C(=O)CCCCCCC/C=C\CCCCCCCC)C1CCCCC1 (stereo not shown) [A23I4R13C18-1]	–	6.61E+02
CCCCCCCCCCCCCCCC(=O)N(CCO)C(C(=O)NCCN(C)CCNC(=O)C(C(C)C)N(CCO)C(=O)CCCCCCCCCCCCCCC)C(C)C (stereo not shown) [A1I4R22C16]	2.30E+03	–
CCCCCCCC/C=C\CCCCCCCC(=O)N(CCC)C(C(=O)NCCN(C)CCNC(=O)C(C(CC)CCCC)N(CCC)C(=O)CCCCCCC/C=C\CCCCCCCC)C(CC)CCCC (stereo not shown) [A4I4R21C18-1]	3.02E+04	–
CCCCCCCC/C=C\CCCCCCCC(=O)N(CCCN(C)C)C(C(=O)NCCN(C)CCNC(=O)C(C1CC1)N(CCCN(C)C)C(=O)CCCCCCC/C=C\CCCCCCCC)C1CC1 (stereo not shown) [A21I4R2C18-1]	–	8.38E+02
CCCCCCCC/C=C\CCCCCCCC(=O)N(CCN1CCCCCC1)C(C(=O)NCCN(C)CCNC(=O)C(C(CC)CCCC)N(CCN1CCCCCC1)C(=O)CCCCCCC/C=C\CCCCCCCC)C(CC)CCCC (stereo not shown) [A4I4R13C18-1]	1.59E+03	–
CCCCC/C=C\C/C=C\CCCCCCCC(=O)N(CCCN(C)C)C(C(=O)NCCN(C)CCNC(=O)C(C(CC)CCCC)N(CCCN(C)C)C(=O)CCCCCCC/C=C\C/C=C\CCCCC)C(CC)CCCC (stereo not shown) [A4I4R2C18-2]	1.86E+04	–

Same assay, conditions: mRNA-loaded nanoparticles, compounds of Example 3; intravenous (tail vein), 5 μg Luciferase-mRNA, 6 hours

SMILES	Fluorescence intensity of spleen
CCCCCCCCCCCCN(C(=O)CO)C(C(=O)NCCN(CCNC(=O)C(C(C)C)N(CCCCCCCCCCCC)C(=O)CO)CCNC(=O)C(C(C)C)N(CCCCCCCCCCCC)C(=O)CO)C(C)C (stereo not shown) [A1I5R50C21]	3.60E+06
CCCCC/C=C\C/C=C\CCCCCCCC(=O)N(CCO)C(C(=O)NCCN(CCNC(=O)C(C(C)C)N(CCO)C(=O)CCCCCCC/C=C\C/C=C\CCCCC)CCNC(=O)C(C(C)C)N(CCO)C(=O)CCCCCCC/C=C\C/C=C\CCCCC)C(C)C (stereo not shown) [A1I5R22C18-2]	6.90E+05
CCCCCCCCCCCCSSCCC(=O)N(CCO)C(C(=O)NCCN(CCNC(=O)C(C(C)C)N(CCO)C(=O)CCSSCCCCCCCCCCCC)CCNC(=O)C(C(C)C)N(CCO)C(=O)CCSSCCCCCCCCCCCC)C(C)C (stereo not shown) [A1I5R22S17]	6.40E+05
CCCCCCCCCCCC(=O)N(CCO)C(C(=O)NCCN(CCNC(=O)C(C(C)C)N(CCO)C(=O)CCCCCCCCCCC)CCNC(=O)C(C(C)C)N(CCO)C(=O)CCCCCCCCCCC)C(C)C (stereo not shown) [A1I5R22C12]	2.96E+06
CCCCCCCCCCCCCCCCCC(=O)N(CCO)C(C(=O)NCCN(CCNC(=O)C(C(C)C)N(CCO)C(=O)CCCCCCCCCCCCCCCCC)CCNC(=O)C(C(C)C)N(CCO)C(=O)CCCCCCCCCCCCCCCCC)C(C)C (stereo not shown) [A1I5R22C18]	1.10E+05

From US20250161216A1, “CATIONIC LIPID ANALOGUES, COMPOSITIONS AND USES THEREOF” (GUANGZHOU LIDE BIOMEDICINE TECHNOLOGY CO., LTD., priority 2022, published 2025)
